Test results reported in US3982931A, “N,N-di-sec.butyl-benzamide herbicides” (priority 1967, dated 1976).

Experiments:
[1] = system: amaranthus retroflexus L.; test: herbicidal activity, soil treatment one day after sowing; assay type: in vivo
artemisia vulgaris L. = test: as above; assay type: in vivo
chenopodium album L. = test: as above; assay type: in vivo
[2] = system: echinocloa crus-galli R.S.; test: as above; assay type: in vivo
setaria glauca L. = test: as above; assay type: in vivo
vicia sativa L. = test: as above; assay type: in vivo
Method in brief: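 Pre-emergence soil treatment one day after sowing; activity scored visually on a […] scale against untreated control, from slight difference (1) to no germination or total containment at emergence (4); intermediate activity recorded as both classes, preeminent value first.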

avena sativa (oats) = test: activity on agrarian species, soil treatment one day after sowing; assay type: in vivo, Avena sativa L.
[3] = system: beta vulgaris L. (sugar-beet); test: as above; assay type: in vivo
Source text: (§1) The infesting species and the agrarian species have been indicated in Table 1 by letters, as follows:
H = beta vulgaris L. (sugar-beet)
(§2) Method of evaluation of the results (of tests):
(§3) 0 = no activity and no difference with respect to the control;
(§4) 1 slight differences with respect to the control;
(§5) 3 = considerable activity with damages that definitely impair the further development of most of the small plants; an activity degree already useful for practical purposes;
(§6) 4 = maximum of activity with lack of germination or total containment of the small plants in the emerging stage.
In the case of an intermediate activity between two classes of the scale, both values are recorded with the one which corresponds to the preeminent activity preceding.
TABLE 2 reports the activity data of other compounds that fall within the class which is the object of this invention.
TABLE 3 reports data on the herbicidal activity against infesting herbs, while TABLE 4 reports data concerning the activity on useful species of agricultural cultivations. These tables employ the criterion explained previously. The product was spread on the soil one day after sowing, in quantities of 1, 3, 6, 8, 10, 12 and 14 kg/ha.

[4] = system: phaseolus vulgaris (bean); test: as above; assay type: in vivo, Phaseolus vulgaris L.
Method in brief: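 Activity on bean was rated from 0 (no difference from control) to 4 (germination prevented or plants fully contained at emergence), with both classes noted for intermediate effects. Soil treatment one day after sowing, at rates of 1, 3, 6, 8, 10, 12 and 14 kg/ha.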

pisum sativum L. (pea) = test: as above; assay type: in vivo
solanum Lycopersicum L. = test: as above; assay type: in vivo; settings: 6 kg/ha
Source text: as §1
M = solanum Lycopersicum L.
as §2, §3, §4, §5, §6
In the case of an intermediate activity between two classes of the scale, both values are recorded with the one which corresponds to the preeminent activity preceding. […]

[5] = system: triticum vulgare L. (wheat); test: as above; assay type: in vivo
Method in brief: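 Wheat effects rated against untreated control on a 0 (no difference) to 4 (no germination or emergence fully contained) scale, with two-class scores for intermediate activity. Application was to soil one day post-sowing at rates of 1, 3, 6, 8, 10, 12 and 14 kg/ha.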

zea mais L. (corn) = test: as above; assay type: in vivo
Method in brief: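 Crop injury rated 0–4 relative to control, from no difference up to complete germination failure or arrest of emerging plants; in-between responses get both values. Product spread on soil at 1–14 kg/ha (1, 3, 6, 8, 10, 12, 14) one day post-sowing.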

oryza sativa L. (rice) = test: as above; assay type: in vivo
Method in brief: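 Activity scored 0 (no difference from control) to 4 (no germination or total containment of emerging plants), intermediates given both classes. Product spread on soil one day after sowing rice, at rates of 1, 3, 6, 8, 10, 12 and 14 kg/ha.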

rice = test: plot-test in open field planted with rice; assay type: in vivo; settings: even at 30 kg/ha of active substance

CCC(C)N(C(=O)c1ccc(Cl)c(Cl)c1)C(C)CC (stereo not shown) [PA106, 3,4-dichloro-N,N-di-sec.butyl-benzamide]
herbicidal activity, Table 3 ([1]; 1 kg/ha): 0 | activity on A, 0-4 scale ([1]; 2 kg/ha): 1 | herbicidal activity, Table 3 ([1]; 3 kg/ha): 1/2 | activity on A, 0-4 scale ([1]; 4 kg/ha): 2 | activity on A, 0-4 scale ([1]; 6 kg/ha): 3 | herbicidal activity, Table 3 ([1]; 6 kg/ha): 3 | herbicidal activity, Table 3 ([1]; 8 kg/ha): 4/3 | herbicidal activity, Table 3 ([1]; 10 kg/ha): 4 | herbicidal activity, Table 3 ([1]; 12 kg/ha): 4 | herbicidal activity, Table 3 ([1]; 14 kg/ha): 4 | herbicidal activity, Table 3 (artemisia vulgaris L.; 1 kg/ha): 0 | activity on B, 0-4 scale (artemisia vulgaris L.; 2 kg/ha): 0-1 | herbicidal activity, Table 3 (artemisia vulgaris L.; 3 kg/ha): 1 | activity on B, 0-4 scale (artemisia vulgaris L.; 4 kg/ha): 1-2 | activity on B, 0-4 scale (artemisia vulgaris L.; 6 kg/ha): 3 | herbicidal activity, Table 3 (artemisia vulgaris L.; 6 kg/ha): 3 | herbicidal activity, Table 3 (artemisia vulgaris L.; 8 kg/ha): 3 | herbicidal activity, Table 3 (artemisia vulgaris L.; 10 kg/ha): 3 | herbicidal activity, Table 3 (artemisia vulgaris L.; 12 kg/ha): 4/3 | herbicidal activity, Table 3 (artemisia vulgaris L.; 14 kg/ha): 4 | herbicidal activity, Table 3 (chenopodium album L.; 1 kg/ha): 0 | activity on C, 0-4 scale (chenopodium album L.; 2 kg/ha): 0-1 | herbicidal activity, Table 3 (chenopodium album L.; 3 kg/ha): 1 | activity on C, 0-4 scale (chenopodium album L.; 4 kg/ha): 1-2 | activity on C, 0-4 scale (chenopodium album L.; 6 kg/ha): 3 | herbicidal activity, Table 3 (chenopodium album L.; 6 kg/ha): 3 | herbicidal activity, Table 3 (chenopodium album L.; 8 kg/ha): 2/3 | herbicidal activity, Table 3 (chenopodium album L.; 10 kg/ha): 3 | herbicidal activity, Table 3 (chenopodium album L.; 14 kg/ha): 3/4 | herbicidal activity, Table 3 ([2]; 1 kg/ha): 0/1 | activity on D, 0-4 scale ([2]; 2 kg/ha): 2 | herbicidal activity, Table 3 ([2]; 3 kg/ha): 3 | activity on D, 0-4 scale ([2]; 4 kg/ha): 3-4 | activity on D, 0-4 scale ([2]; 6 kg/ha): 4 | herbicidal activity, Table 3 ([2]; 6 kg/ha): 4 | herbicidal activity, Table 3 ([2]; 8 kg/ha): 4 | herbicidal activity, Table 3 ([2]; 10 kg/ha): 4 | herbicidal activity, Table 3 ([2]; 12 kg/ha): 4 | herbicidal activity, Table 3 ([2]; 14 kg/ha): 4 | herbicidal activity, Table 3 (setaria glauca L.; 1 kg/ha): 2/3 | herbicidal activity, Table 3 (setaria glauca L.; 3 kg/ha): 3 | activity on E, 0-4 scale (setaria glauca L.; 4 kg/ha): 3-4 | activity on E, 0-4 scale (setaria glauca L.; 6 kg/ha): 4 | herbicidal activity, Table 3 (setaria glauca L.; 6 kg/ha): 4 | herbicidal activity, Table 3 (setaria glauca L.; 8 kg/ha): 4 | herbicidal activity, Table 3 (setaria glauca L.; 10 kg/ha): 4 | herbicidal activity, Table 3 (setaria glauca L.; 12 kg/ha): 4 | herbicidal activity, Table 3 (setaria glauca L.; 14 kg/ha): 4 | activity on F, 0-4 scale (vicia sativa L.; 2 kg/ha): 0 | activity on F, 0-4 scale (vicia sativa L.; 4 kg/ha): 0 | activity on F, 0-4 scale (vicia sativa L.; 6 kg/ha): 0 | activity on useful species, Table 4 (avena sativa (oats); 1 kg/ha): 0 | activity on useful species, Table 4 (avena sativa (oats); 3 kg/ha): 0 | activity on G, 0-4 scale (avena sativa (oats); 6 kg/ha): 0 | activity on useful species, Table 4 (avena sativa (oats); 6 kg/ha): 0 | activity on useful species, Table 4 (avena sativa (oats); 8 kg/ha): 0 | activity on useful species, Table 4 (avena sativa (oats); 10 kg/ha): 0/1 | activity on useful species, Table 4 (avena sativa (oats); 12 kg/ha): 0/1 | activity on useful species, Table 4 (avena sativa (oats); 14 kg/ha): 1 | activity on useful species, Table 4 ([3]; 1 kg/ha): 0 | activity on useful species, Table 4 ([3]; 3 kg/ha): 0 | activity on H, 0-4 scale ([3]; 6 kg/ha): 1 | activity on useful species, Table 4 ([3]; 6 kg/ha): 1 | activity on useful species, Table 4 ([3]; 8 kg/ha): 1 | activity on useful species, Table 4 ([3]; 10 kg/ha): 1/2 | activity on useful species, Table 4 ([3]; 12 kg/ha): 2 | activity on useful species, Table 4 ([3]; 14 kg/ha): 2/3 | activity on useful species, Table 4 ([4]; 1 kg/ha): 0 | activity on useful species, Table 4 ([4]; 3 kg/ha): 0 | activity on I, 0-4 scale ([4]; 6 kg/ha): 0 | activity on useful species, Table 4 ([4]; 6 kg/ha): 0 | activity on useful species, Table 4 ([4]; 8 kg/ha): 0 | activity on useful species, Table 4 ([4]; 10 kg/ha): 0 | activity on useful species, Table 4 ([4]; 12 kg/ha): 0/1 | activity on useful species, Table 4 ([4]; 14 kg/ha): 0/1 | activity on useful species, Table 4 (pisum sativum L. (pea); 1 kg/ha): 0 | activity on useful species, Table 4 (pisum sativum L. (pea); 3 kg/ha): 0 | activity on L, 0-4 scale (pisum sativum L. (pea); 6 kg/ha): 0 | activity on useful species, Table 4 (pisum sativum L. (pea); 6 kg/ha): 0 | activity on useful species, Table 4 (pisum sativum L. (pea); 8 kg/ha): 0 | activity on useful species, Table 4 (pisum sativum L. (pea); 10 kg/ha): 0 | activity on useful species, Table 4 (pisum sativum L. (pea); 12 kg/ha): 0 | activity on useful species, Table 4 (pisum sativum L. (pea); 14 kg/ha): 0 | activity on M, 0-4 scale (solanum Lycopersicum L.): 0 | activity on useful species, Table 4 ([5]; 1 kg/ha): 0 | activity on useful species, Table 4 ([5]; 3 kg/ha): 0 | activity on N, 0-4 scale ([5]; 6 kg/ha): 0 | activity on useful species, Table 4 ([5]; 6 kg/ha): 0 | activity on useful species, Table 4 ([5]; 8 kg/ha): 0/1 | activity on useful species, Table 4 ([5]; 10 kg/ha): 0/1 | activity on useful species, Table 4 ([5]; 12 kg/ha): 1 | activity on useful species, Table 4 ([5]; 14 kg/ha): 1 | activity on useful species, Table 4 (zea mais L. (corn); 1 kg/ha): 0 | activity on useful species, Table 4 (zea mais L. (corn); 3 kg/ha): 0 | activity on O, 0-4 scale (zea mais L. (corn); 6 kg/ha): 0 | activity on useful species, Table 4 (zea mais L. (corn); 6 kg/ha): 0 | activity on useful species, Table 4 (zea mais L. (corn); 8 kg/ha): 0 | activity on useful species, Table 4 (zea mais L. (corn); 10 kg/ha): 0 | activity on useful species, Table 4 (zea mais L. (corn); 12 kg/ha): 0/1 | activity on useful species, Table 4 (zea mais L. (corn); 14 kg/ha): 1 | activity on useful species, Table 4 (oryza sativa L. (rice); 1 kg/ha): 0 | activity on useful species, Table 4 (oryza sativa L. (rice); 3 kg/ha): 0 | activity on P, 0-4 scale (oryza sativa L. (rice); 6 kg/ha): 0 | activity on useful species, Table 4 (oryza sativa L. (rice); 6 kg/ha): 0 | activity on useful species, Table 4 (oryza sativa L. (rice); 8 kg/ha): 0 | activity on useful species, Table 4 (oryza sativa L. (rice); 10 kg/ha): 0 | activity on useful species, Table 4 (oryza sativa L. (rice); 12 kg/ha): 0 | activity on useful species, Table 4 (oryza sativa L. (rice); 14 kg/ha): 0/1 | phytotoxic effects on the rice (rice): no phytotoxic effects
